The results in this text go back to a melting point compilation (Tetko et al.; mined from patent text by program, amines drawn as free bases though some values may be those of a salt).

A word on the melting point: it is the temperature, or range, at which the solid turns liquid.

As to `O=C(Oc1ccccc1)c1ccc2[nH]nnc2c1`, the melting point fell in the range of 156 to 160 °C.
Compound `CNC(=O)c1cnc(Cl)cc1-c1ccccc1C` registered a melting point of 91 to 93 °C.
For the compound `CC(C)c1ccc(CN2CCC(NC(=O)NC(=O)c3ccccc3)CC2)cc1`, the melting point was in the range of 240 to 242 °C.
The figure for `COC(=O)C=C1C(=O)N(c2ccccc2)C(=O)N1Cc1ccccc1` is 130 °C; for `O=C(NC1CCC1)c1cc([N+](=O)[O-])[nH]n1` it is 240 °C.
As to `O=C(O)CS(=O)(=O)c1cccc(C(=O)C2CCC3(CCNCC3)CC2)c1`, the melting point is 134 to 138 °C.
As to `CN1CCC(=O)C(c2cccc(C(F)(F)F)c2)C1` (centres undefined), the melting point lay within 64 to 65 °C.
For `Cc1ncc2cc(-c3cc(C(F)(F)F)cc(C(F)(F)F)c3)ccc2n1`, the melting point fell in the range of 208 to 210 °C.
As for `COC(=O)CCC(=O)c1ccc2c(c1)CNC(=O)N2C`, the figure is 165 to 175 °C; as for `Cc1nnsc1C(=O)Nc1ccc(-n2nc(C3CC3)cc2C2CC2)cc1`, 117 to 120 °C.
Turning to `CCCCCCCCS(=O)(=O)NC(Cc1cc2c(N)nccc2s1)C(=O)N1CCC(C)CC1` (centres undefined), the melting point is 101 to 112 °C.
As for `CCOC(=O)c1ccc(-c2cccc3cncn23)cc1`, the figure is 118 to 119 °C; as for `Cc1cccc(SCn2cc(Cl)cnc2=O)c1`, 134 °C; as for `CNS(=O)(=O)c1ccccc1Nc1nc(Nc2ccc3c(c2)CCCC(=O)N3)ncc1Cl`, 276 to 282 °C.
The figure for `CCN1Cc2c(cc3ccc4c(c3c2-c2ccc3c(c2)OCO3)OCO4)C1=O` is 210 to 212 °C; for `Nc1cccc(-c2ccc(CCN3C4CCC3CC(N)C4)cc2)n1` (centres undefined) it is over 300 °C.
As for `CCCCCS(=O)(=O)NC(=O)CCc1cc(C(C)C)nn1Cc1ccc(Cl)cc1Cl`, the figure is 115 to 117 °C; as for `COc1c(O)cccc1C=O`, 116 °C; as for `CC(=O)Oc1c(Cc2ccccc2)ccc2ccccc12`, 67 to 69 °C.
Compound `Nc1cc(=O)n(Cc2ccc(Cl)c(C(F)(F)F)c2)[nH]1` displayed a melting point of 132 °C.
As for `Cc1cc(O)n(C)c(=O)c1C#N`, the figure is 285 °C.
As for `CCC(CC)Nc1c([N+](=O)[O-])cc(C)c(COC(=O)COc2ccc(Cl)cc2Cl)c1[N+](=O)[O-]`, the figure is 103 to 106 °C; as for `CCC(C)Sc1cc(C(F)(F)F)ccc1C(=O)c1cnoc1C1CC1` (centres undefined), 75.6 to 76.4 °C.
As to `C[C@H](NC(=O)C[C@H](O)C[C@H](O)/C=C/c1c(C2CC2)nc2ccccc2c1-c1ccc(F)cc1)c1ccccc1`, the melting point was in the range of 57 to 76 °C.
`Cc1cc(C)c2sc(-c3ccccn3)nc(=O)c2c1` had a melting point of 245 to 246 °C.
As to `CCCCOc1c(CNC(=O)OC(C)(C)C)n(CC(C)(C)C)c(=O)c2ccc(/C=C/C(=O)O)cc12`, the melting point lay within 138 to 139 °C.
The figure for `CNc1ccc(C2CC(=O)N(C)C2C(O)c2ccc(-c3ccccc3)s2)cc1` (centres undefined) is 212 °C; for `CCCCCCCCCCCCCCOC(=O)CS(=O)(=O)Nc1c(C(C)C)cccc1C(C)C` it is 53 to 55 °C.
`CC(NC(=O)NO)c1ccc2ccccc2c1` (centres undefined): the melting point was in the range of 156 to 157 °C.
The figure for `CCCCCCCCCCCCc1c[nH]c(C=O)c1` is 64 to 65 °C.
As for `COC(=O)c1cccc2nc(N3CCCCC3)n(Cc3ccc(-c4ccccc4C#N)cc3)c12`, the figure is 119 to 121 °C; as for `Nc1cccc(-c2ccc(CCN3CCC(N)CC3)cc2)n1`, 190 to 195 °C.
As for `CCCCCCCCCCCCCCOc1ccc(C(=O)O)cc1OCCCCCCCCCCCCCC`, the figure is 112 to 113 °C.
Regarding `COc1ccc(Nc2ccnc3nc(CO)ccc23)cc1`, the melting point lay within 275 to 281 °C.
As for `CS(C)=Nc1cnc(Cl)cn1`, the figure is 119 to 120 °C; as for `Cc1cc(C(N)=NO)ccc1[N+](=O)[O-]`, 127 to 129 °C; as for `NS(=O)(=O)c1ccc(-n2nc(CCCNC(=O)NC34CC5CC(CC(C5)C3)C4)cc2-c2ccccc2)cc1`, 139 to 144 °C.
The figure for `CN1C(C(=O)Nc2cccc(Br)c2)=C(O)c2ccc3ccccc3c2S1(=O)=O` is 268 to 269 °C; for `O=c1[nH]c2nc(SCc3ccccc3)ncc2cc1Oc1ccc(F)cc1F` it is 240 to 244 °C.
The figure for `O=Cc1c(O)cccc1OCc1ccc(C(=O)O)cc1` is 239 to 240 °C; for `Cn1c(Nc2cc(C(F)(F)F)ccc2C(F)(F)F)nc(C(F)(F)F)cc1=O` it is 155 to 156 °C.
As for `CSCOC1CCC2C3CCC4=CC(=O)C=CC4(C)C3(F)C(O)CC12C` (centres undefined), the melting point fell in the range of 224 to 225 °C.
As for `CCCCCCCCN1CC(C(=O)OC)N(S(=O)(=O)c2ccc(NC(=O)c3ccc(Cl)cc3)cc2)CC1=O` (centres undefined), the figure is 171 to 173 °C; as for `CSc1ccc(C(=O)c2c(C)sc3c2CCC3C(=O)O)cc1` (centres undefined), 131 to 133 °C; as for `CC(C)(CCCCCCCc1c(-c2ccccc2)nc(-c2ccccc2)n1-c1ccccc1)C(=O)O`, 119 to 120 °C.
The figure for `CCCCCCCCCCCCCCCCOC(=O)c1cc(C(=O)OCCCCCCCCCCCCCCCC)cc(S(=O)(=O)O)c1` is 63 to 65 °C; for `CN1CC(C(=O)NCc2cccnc2)CC2c3cccc4c3c(cn4C)CC21` (centres undefined) it is 185 to 187 °C; for `CC1(N2Cc3cc(CNC(=O)c4ccc(Cl)c(Cl)c4)ccc3C2=O)CCC(=O)NC1=O` (centres undefined) it is 220 to 222 °C.
As for `COc1nc(C)c2c(c1C#N)CCCC2=O`, the figure is 128 °C.
Consider `COP(=O)(O)CC(C)=CC(N)C(=O)O` (centres undefined), for which the melting point is 149 to 150 °C.
The figure for `O=C(O)c1cn(C2CC2)c2c(F)c(N3CC(O)C3)c(F)cc2c1=O` is 286 to 288 °C; for `OCC1COC(Cc2nc[nH]n2)(c2ccc(Cl)cc2)O1` (centres undefined) it is 115 to 117 °C; for `O=C(CC(NC(=O)OCc1ccccc1)c1ccccc1)Nc1n[nH]c(=S)s1` (centres undefined) it is 222 to 223 °C.
As to `O=Cc1ccc(-c2cccc(-c3ccnc4c(C(=O)c5cccs5)cnn34)c2)cc1`, the melting point was 156 to 158 °C.
As for `O=C(Nc1ccc(F)cc1)N[C@H]1CCCN(C(=O)c2ccc(F)cc2)C1`, the figure is 228 to 231 °C.
As for `O=C(O)C1CCc2c(sc3cc(F)ccc23)C1` (centres undefined), the figure is 195 to 198 °C; as for `CCc1cc2c(O)c(C(=O)O)cnc2s1`, 238 to 239 °C.
As for `CO[C@H]1CN(c2c(F)c(N)c3c(=O)c(C(=O)O)cn(C4CC4)c3c2F)C[C@H]1N` (relative stereo), the figure is 222 to 223 °C; as for `COc1cc(NC(=O)OCc2ccccc2)c(Cl)cc1C(=O)O`, 182 to 183 °C.
For `CCOC(=O)c1cnc2ccc(C3CCCCCC3)cc2c1Cl`, the melting point lay in the range of 61 to 62 °C.
As for `CCOC(=O)c1cccn2c(C=O)c(-c3ccccc3)nc12`, the figure is 139 °C.
In the case of `CN1CC(CO)CC2c3cccc4c3C(CN4)CC21` (centres undefined), the melting point lay within 226 to 228 °C.
As for `CCc1nc2c(-c3ccc(Cl)cc3Cl)nccn2c1C(C)O` (centres undefined), the figure is 165 to 166 °C; as for `COC(=O)C(C#N)C(=O)Nc1ccc(C(F)(F)F)cc1` (centres undefined), 186 to 189 °C.
